Data from US7649092B2, “Urea derivatives as calcium channel blockers” (Neuromed Pharmaceuticals Ltd., priority 2004, dated 2010).
Read-outs that look alike come from different tables or passages of the source.

Legend:
[1] = target: T1, rat brain N-type calcium channel subunits (α1B+α2δ+β1b cDNA subunits) (Rattus norvegicus, UniProt Q02294); experiment: N-type calcium channel block, whole cell patch clamp in HEK 293 cells; type: cell-based; details: holding potential −80 mV to +10 mV
T1 construct: expressed in transfected cells
Method: N-type calcium channel blocking activity was assayed in human embryonic kidney cells, HEK 293, stably transfected with the rat brain N-type calcium channel subunits (α1B+α2δ+β1b cDNA subunits). Alternatively, N-type calcium channels (α1B+α2δ+β1b cDNA subunits), L-type channels (α1C+α2δ+β1b cDNA subunits) and P/Q-type channels (α1A+α2δ+β1b cDNA subunits) were transiently expressed in HEK 293 cells. Briefly, cells were cultured in Dulbecco's modified eagle medium (DMEM) supplemented with 10% fetal bovine serum, 200 U/ml penicillin and 0.2 mg/ml streptomycin at 37° C. with 5% CO2. At 85% confluency cells were split with 0.25% trypsin/1 mM EDTA and plated at 10% confluency on glass coverslips. At 12 hours the medium was replaced and the cells transiently transfected using a standard calcium phosphate protocol and the appropriate calcium channel cDNA's. Fresh DMEM was supplied and the cells transferred to 28° C./5% CO2. Cells were incubated for 1 to 2 days prior to whole cell recording.
Whole cell patch clamp experiments were performed using an Axopatch 200B amplifier (Axon Instruments, Burlingame, Calif.) linked to a personal computer equipped with pCLAMP software. The external and internal recording solutions contained, respectively, 5 mM BaCl2, 10 mM MgCl2, 10 mM HEPES, 40 mM TEAC1, 10 mM glucose, 87.5 mM CsCl (pH 7.2) and 108 mM CsMS, 4 mM MgCl2, 9 mM EGTA, 9 mM HEPES (pH 7.2). Currents were typically elicited from a holding potential of −80 mV to +10 mV using Clampex software (Axon Instruments). Typically, currents were first elicited with low frequency stimulation (0.067 Hz) and allowed to stabilize prior to application of the compounds. The compounds were then applied during the low frequency pulse trains for two to three minutes to assess tonic block, and subsequently the pulse frequency was increased to 0.2 Hz to assess frequency dependent block. Data were analyzed using Clampfit (Axon Instruments) and SigmaPlot 4.0 (Jandel Scientific).

[2] = target: T2, human DiG T-type channels (Homo sapiens, UniProt O43497); experiment: T-type calcium channel block, whole-cell patch clamp in HEK cell lines; type: cell-based
T2 construct: expressed in transfected cells
Method: Standard patch-clamp techniques were employed to identify blockers of T-type currents. Briefly, previously described HEK cell lines stably expressing human DiG T-type channels were used for all the recordings (passage #: 4-20, 37° C., 5% CO2). To obtain T-type currents, plastic dishes containing semi-confluent cells were positioned on the stage of a ZEISS AXIOVERT S100 microscope after replacing the culture medium with external solution (see below). Whole-cell patches were obtained using pipettes (borosilicate glass with filament, O.D.: 1.5 mm, I.D.: 0.86 mm, 10 cm length), fabricated on a SUTTER P-97 puller with resistance values of ˜5 MΩ (see below for internal solution).
In the non-inactivating protocol, the holding potential is set at −110 mV and with a pre-pulse at −100 mV for 1 second prior to the test pulse at −40 mV for 50 ms. […]
Test compounds were dissolved in external solution, 0.1-0.01% DMSO. After ˜10 min rest, they were applied by gravity close to the cell using a WPI microfil tubing. The “non-inactivated” pre-pulse was used to examine the resting block of a compound. The “inactivated” protocol was employed to study voltage-dependent block. However, the initial data shown below were mainly obtained using the non-inactivated protocol only. IC50 values are shown for various compounds of the invention in Table 5.

rat formalin model = experiment: Formalin-induced pain model (paw flinches); type: in vivo; details: 30 mg/kg IP, 10 min before formalin, ±SEM, saline control=100%
Method: The effects of intrathecally delivered compounds of the invention on the rat formalin model were measured. The compounds were reconstituted to stock solutions of approximately 10 mg/ml in propylene glycol. Eight Holtzman male rats of 275-375 g size were randomly selected per test article.
The following study groups were used, with test article, vehicle control (propylene glycol) and saline delivered intraperitoneally (IP):
Prior to initiation of drug delivery baseline behavioral and testing data were taken.
On the morning of testing, a small metal band (0.5 g) was loosely placed around the right hind paw. The rat was placed in a cylindrical Plexiglas chamber for adaptation a minimum of 30 minutes. Test Article or Vehicle Control Article was administered 10 minutes prior to formalin injection (50 μl of 5% formalin) into the dorsal surface of the right hind paw of the rat. The animal was then placed into the chamber of the automated formalin apparatus where movement of the formalin injected paw was monitored and the number of paw flinches tallied by minute over the next 60 minutes (Malmberg, A. B., et al., Anesthesiology (1993) 79:270-281).
Results are presented as Maximum Possible Effect ±SEM, where saline control=100%.

[3] = test system: SNL rats, tactile allodynia; experiment: Spinal nerve ligation (SNL) model of neuropathic pain, tactile allodynia (von Frey filaments); type: in vivo; details: rat SNL, 30 mg/kg orally in propylene glycol
From the text: (§1) Spinal nerve ligation (SNL) injury was induced using the procedure of Kim and Chung, (Kim, S. H., et al., Pain (1992) 50:355-363) in male Sprague-Dawley rats (Harlan; Indianapolis, Ind.) weighing 200 to 300 grams. Anesthesia was induced with 2% halothane in O2 at 2 L/min and maintained with 0.5% halothane in O2. After surgical preparation of the rats and exposure of the dorsal vertebral column from L4 to S2, the L5 and L6 spinal nerves were tightly ligated distal to the dorsal root ganglion using 4-0 silk suture. The incision was closed, and the animals were allowed to recover for 5 days. […] Sham control rats underwent the same operation and handling as the experimental animals, but without SNL.
The assessment of tactile allodynia consisted of measuring the withdrawal threshold of the paw ipsilateral to the site of nerve injury in response to probing with a series of calibrated von Frey filaments. Each filament was applied perpendicularly to the plantar surface of the ligated paw of rats kept in suspended wire-mesh cages. Measurements were taken before and after administration of drug or vehicle. Withdrawal threshold was determined by sequentially increasing and decreasing the stimulus strength (“up and down” method), analyzed using a Dixon non-parametric test (Chaplan, S. R., et al., J Pharmacol Exp Ther (1994) 269:1117-1123), and expressed as the mean withdrawal threshold.
(§2) Compound 1 was administered orally in propylene glycol solution at a dose of 30 mg/kg. The percent activity was calculated for block of tactile allodynia, thermal hyperalgesia and analgesia.

[4] = test system: SNL rats, thermal hyperalgesia / anti nociception; experiment: Spinal nerve ligation (SNL) model of neuropathic pain, paw-withdrawal latency to thermal stimulus (Hargreaves); type: in vivo; details: rat SNL, 30 mg/kg orally in propylene glycol
From the text: as §1
The method of Hargreaves and colleagues (Hargreaves, K., et al., Pain (1988) 32:77-88) was employed to assess paw-withdrawal latency to a thermal nociceptive stimulus. Rats were allowed to acclimate within a Plexiglas enclosure on a clear glass plate maintained at 30° C. A radiant heat source (i.e., high intensity projector lamp) was activated with a timer and focused onto the plantar surface of the affected paw of nerve-injured or carrageenan-injected rats. Paw-withdrawal latency was determined by a photocell that halted both lamp and timer when the paw was withdrawn. The latency to withdrawal of the paw from the radiant heat source was determined prior to carrageenan or […], 3 hours after carrageenan or 7 days after L5/L6 SNL but before drug and after drug administration. A maximal cut-off of 40 seconds was employed to prevent tissue damage. Paw withdrawal latencies were thus determined to the nearest 0.1 second. Reversal of thermal hyperalgesia was indicated by a return of the paw withdrawal latencies to the pre-treatment baseline latencies (i.e., 21 seconds). Anti nociception was indicated by a significant (p<0.05) increase in paw withdrawal latency above this baseline. Data were converted to % anti hyperalgesia or % anti nociception by the formula: (100×(test latency−baseline latency)/(cut-off−baseline latency) where cut-off was 21 seconds for determining anti hyperalgesia and 40 seconds for determining anti nociception.
as §2

[5] = test system: T-type over L-type channels; details: literature (Heady et al. 2001); cited from earlier work

T1 sequence (Q02294 whole entry): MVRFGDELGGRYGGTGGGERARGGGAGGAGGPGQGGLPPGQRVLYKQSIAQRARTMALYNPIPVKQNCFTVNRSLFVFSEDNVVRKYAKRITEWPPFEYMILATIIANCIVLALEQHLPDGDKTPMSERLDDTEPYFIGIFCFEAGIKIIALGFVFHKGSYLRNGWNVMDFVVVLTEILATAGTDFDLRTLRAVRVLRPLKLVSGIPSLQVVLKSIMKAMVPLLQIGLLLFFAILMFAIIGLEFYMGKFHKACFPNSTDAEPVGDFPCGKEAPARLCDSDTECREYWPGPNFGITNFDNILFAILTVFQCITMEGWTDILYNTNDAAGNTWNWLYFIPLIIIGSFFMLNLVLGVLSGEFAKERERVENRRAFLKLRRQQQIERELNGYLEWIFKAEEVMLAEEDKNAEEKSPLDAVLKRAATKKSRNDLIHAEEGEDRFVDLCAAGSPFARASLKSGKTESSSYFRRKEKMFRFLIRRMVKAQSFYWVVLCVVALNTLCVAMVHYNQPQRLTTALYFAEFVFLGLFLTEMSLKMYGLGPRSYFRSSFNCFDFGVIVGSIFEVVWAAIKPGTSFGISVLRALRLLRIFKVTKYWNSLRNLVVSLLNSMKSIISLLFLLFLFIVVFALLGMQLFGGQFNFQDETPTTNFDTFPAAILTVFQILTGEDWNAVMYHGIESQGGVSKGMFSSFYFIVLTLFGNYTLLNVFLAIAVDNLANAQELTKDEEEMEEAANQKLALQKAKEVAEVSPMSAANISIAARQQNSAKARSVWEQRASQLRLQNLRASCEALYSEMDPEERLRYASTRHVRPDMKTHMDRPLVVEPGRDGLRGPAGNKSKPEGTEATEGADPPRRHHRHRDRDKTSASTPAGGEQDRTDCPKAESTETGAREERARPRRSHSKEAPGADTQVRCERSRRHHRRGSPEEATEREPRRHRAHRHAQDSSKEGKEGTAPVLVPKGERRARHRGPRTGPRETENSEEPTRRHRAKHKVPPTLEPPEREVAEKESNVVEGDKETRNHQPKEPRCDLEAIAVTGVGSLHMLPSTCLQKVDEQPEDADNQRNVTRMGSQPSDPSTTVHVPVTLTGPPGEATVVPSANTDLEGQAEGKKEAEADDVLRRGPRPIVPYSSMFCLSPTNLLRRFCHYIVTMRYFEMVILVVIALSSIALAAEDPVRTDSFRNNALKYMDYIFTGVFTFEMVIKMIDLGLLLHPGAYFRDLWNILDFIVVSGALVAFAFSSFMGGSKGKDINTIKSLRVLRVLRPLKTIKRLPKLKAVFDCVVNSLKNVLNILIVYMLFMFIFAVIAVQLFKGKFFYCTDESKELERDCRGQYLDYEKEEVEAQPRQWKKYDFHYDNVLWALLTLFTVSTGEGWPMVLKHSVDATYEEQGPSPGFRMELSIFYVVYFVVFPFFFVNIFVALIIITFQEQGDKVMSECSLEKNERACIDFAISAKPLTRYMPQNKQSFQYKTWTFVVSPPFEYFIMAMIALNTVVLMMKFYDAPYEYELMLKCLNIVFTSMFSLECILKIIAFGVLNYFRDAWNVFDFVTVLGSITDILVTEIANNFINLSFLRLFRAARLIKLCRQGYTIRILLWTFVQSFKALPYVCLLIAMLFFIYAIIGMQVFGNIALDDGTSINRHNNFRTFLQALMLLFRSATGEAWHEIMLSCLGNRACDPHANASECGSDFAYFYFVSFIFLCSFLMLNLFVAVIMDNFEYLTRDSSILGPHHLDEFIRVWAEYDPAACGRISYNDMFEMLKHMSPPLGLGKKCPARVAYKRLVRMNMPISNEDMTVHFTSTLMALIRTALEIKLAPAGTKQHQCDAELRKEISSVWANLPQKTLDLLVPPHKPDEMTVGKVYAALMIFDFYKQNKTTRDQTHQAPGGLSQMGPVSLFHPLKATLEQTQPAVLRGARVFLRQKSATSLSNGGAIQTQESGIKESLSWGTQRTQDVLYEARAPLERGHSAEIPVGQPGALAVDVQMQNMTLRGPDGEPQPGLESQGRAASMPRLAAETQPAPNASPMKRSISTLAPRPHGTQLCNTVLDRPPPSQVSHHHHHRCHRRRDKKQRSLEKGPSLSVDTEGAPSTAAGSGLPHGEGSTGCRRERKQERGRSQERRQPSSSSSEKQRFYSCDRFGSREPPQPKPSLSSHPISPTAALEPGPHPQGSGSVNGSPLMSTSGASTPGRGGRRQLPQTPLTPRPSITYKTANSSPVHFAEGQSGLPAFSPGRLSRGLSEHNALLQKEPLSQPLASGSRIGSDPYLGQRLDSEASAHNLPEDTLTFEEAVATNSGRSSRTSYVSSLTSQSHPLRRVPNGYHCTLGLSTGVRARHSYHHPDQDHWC
T1 sequence (P54290 25-1091 partner): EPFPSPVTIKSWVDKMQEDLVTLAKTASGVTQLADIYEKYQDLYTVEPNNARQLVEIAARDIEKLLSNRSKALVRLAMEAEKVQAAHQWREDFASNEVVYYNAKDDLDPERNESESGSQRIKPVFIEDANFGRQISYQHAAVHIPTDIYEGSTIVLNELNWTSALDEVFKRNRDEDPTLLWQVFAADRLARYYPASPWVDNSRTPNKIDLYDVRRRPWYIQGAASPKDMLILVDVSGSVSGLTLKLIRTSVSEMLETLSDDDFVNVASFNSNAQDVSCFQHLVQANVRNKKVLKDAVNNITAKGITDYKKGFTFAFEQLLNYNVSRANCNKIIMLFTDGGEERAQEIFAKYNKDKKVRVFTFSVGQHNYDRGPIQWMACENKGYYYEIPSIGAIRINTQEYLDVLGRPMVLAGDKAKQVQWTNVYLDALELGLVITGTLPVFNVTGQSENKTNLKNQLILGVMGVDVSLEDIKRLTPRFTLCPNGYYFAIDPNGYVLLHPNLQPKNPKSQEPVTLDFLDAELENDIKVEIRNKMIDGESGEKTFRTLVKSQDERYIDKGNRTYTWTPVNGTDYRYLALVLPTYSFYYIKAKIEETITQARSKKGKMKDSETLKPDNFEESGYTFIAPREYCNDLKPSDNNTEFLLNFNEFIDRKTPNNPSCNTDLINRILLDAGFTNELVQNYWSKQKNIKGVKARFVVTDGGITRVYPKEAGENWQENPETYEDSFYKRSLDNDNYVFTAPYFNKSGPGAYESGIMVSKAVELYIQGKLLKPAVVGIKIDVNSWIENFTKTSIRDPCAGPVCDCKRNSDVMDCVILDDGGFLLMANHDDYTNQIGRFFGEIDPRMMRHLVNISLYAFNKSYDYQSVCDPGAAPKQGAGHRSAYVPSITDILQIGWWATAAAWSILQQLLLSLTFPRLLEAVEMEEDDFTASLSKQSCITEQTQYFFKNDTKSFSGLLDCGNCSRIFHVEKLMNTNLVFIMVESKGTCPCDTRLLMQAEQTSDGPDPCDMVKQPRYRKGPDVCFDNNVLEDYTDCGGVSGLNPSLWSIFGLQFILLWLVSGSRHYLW
T1 sequence (P54283 whole entry partner): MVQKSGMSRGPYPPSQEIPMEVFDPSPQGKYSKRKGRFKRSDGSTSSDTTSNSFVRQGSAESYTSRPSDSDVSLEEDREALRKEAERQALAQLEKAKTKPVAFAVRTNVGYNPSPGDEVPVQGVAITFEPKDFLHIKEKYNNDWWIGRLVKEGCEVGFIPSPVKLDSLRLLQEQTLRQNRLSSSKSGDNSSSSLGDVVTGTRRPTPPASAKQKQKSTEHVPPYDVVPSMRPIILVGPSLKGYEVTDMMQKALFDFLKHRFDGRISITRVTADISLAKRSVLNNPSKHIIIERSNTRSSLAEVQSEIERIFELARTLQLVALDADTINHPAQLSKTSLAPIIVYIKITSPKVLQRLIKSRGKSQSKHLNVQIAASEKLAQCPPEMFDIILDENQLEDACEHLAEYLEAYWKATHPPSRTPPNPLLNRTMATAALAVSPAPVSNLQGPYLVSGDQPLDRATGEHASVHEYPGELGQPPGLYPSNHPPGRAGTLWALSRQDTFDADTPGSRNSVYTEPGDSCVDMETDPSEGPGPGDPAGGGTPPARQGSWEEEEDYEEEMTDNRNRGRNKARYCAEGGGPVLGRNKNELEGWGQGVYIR

Structure (SMILES): O=C(NC(c1ccccc1)c1ccccc1)N1CCN(C(c2ccccc2)c2ccccc2)CC1 [Compound 1, 4-Benzhydryl-piperazine-1-carboxylic acid benzhydryl-amide]
- IC50 ([1]; low frequency stimulation 0.067 Hz (tonic block), read-out: IC50 @ 0.067 Hz): 0.2 µM
- IC50 ([1]; pulse frequency 0.2 Hz (frequency dependent block), read-out: IC50 @ 0.2 Hz): 0.15 µM
- IC50 ([2]; inactivation protocol, @ −80 mV, read-out: IC50 @ −80 mV): 0.231 µM
- IC50 ([2]; non-inactivating protocol, pre-pulse −100 mV, test pulse −40 mV, read-out: IC50 @ −100 mV): 0.583 µM
- Phase I (% MPE) (rat formalin model): 58 ± 15 % MPE
- Phase II Total (% MPE) (rat formalin model): 75 ± 12 % MPE
- Phase IIA (% MPE) (rat formalin model): 65 ± 12 % MPE
- Phase IIB (% MPE) (rat formalin model): 99 ± 15 % MPE
- Tactile Allodynia (% Activity) ([3]; 30 min): 35.77 ± 10.38 % Activity
- Tactile Allodynia (% Activity) ([3]; 60 min): 80.89 ± 13.30 % Activity
- Tactile Allodynia (% Activity) ([3]; 90 min): 35.49 ± 9.01 % Activity
- Tactile Allodynia (% Activity) ([3]; 120 min): 19.61 ± 6.78 % Activity
- Tactile Allodynia (% Activity) ([3]; 150 min): 1.98 ± 1.42 % Activity
- Analgesia (% Activity) ([4]; 30 min): 82.47 ± 10.11 % Activity
- Thermal Hyperalgesia (% Activity) ([4]; 30 min): 46.98 ± 15.09 % Activity
- Analgesia (% Activity) ([4]; 60 min): 88.95 ± 8.30 % Activity
- Thermal Hyperalgesia (% Activity) ([4]; 60 min): 97.86 ± 2.14 % Activity
- Analgesia (% Activity) ([4]; 90 min): 9.02 ± 5.66 % Activity
- Thermal Hyperalgesia (% Activity) ([4]; 90 min): 49.07 ± 10.17 % Activity
- Analgesia (% Activity) ([4]; 120 min): 0.00 ± 0.00 % Activity
- Thermal Hyperalgesia (% Activity) ([4]; 120 min): 33.36 ± 10.62 % Activity

Structure (SMILES): COCC(=O)O[C@]1(CCN(C)CCCc2nc3ccccc3[nH]2)CCc2cc(F)ccc2[C@@H]1C(C)C [Mibefradil]
- selective for T-type over L-type channels [5]: 10-30 fold
